Results on one compound are retold here after publication PMC11742723, “The clinical-stage drug BTZ-043 accumulates in murine tuberculosis lesions and efficiently acts against Mycobacterium tuberculosis” (Nature Communications, 2025).

SMILES strings stand for the structures.

In this experiment the test system is Mtb. It is filed as cell-based, Mycobacterium tuberculosis.

For the compound `C[C@H]1COC2(CCN(c3nc(=O)c4cc(C(F)(F)F)cc([N+](=O)[O-])c4s3)CC2)O1` [BTZ-043], the “effect on mycobacterial growth on agar containing BTZ-043” value (1 ng/mL BTZ-043, bacteria from BTZ-043 treated BALB/c mice, untreated mice and H37Rv) is “did not restrict mycobacterial viability”. The “growth of Mtb from drug treated IL-13tg mice on agar containing BTZ-043” value (5 or 10 ng/mL BTZ-043, IL-13tg mice 250 mg/kg/day 10 days) is listed as “did not grow”. For the same compound, the “mycobacterial growth on agar containing BTZ-043” value (5 or 10 ng/mL BTZ-043, bacteria from BTZ-043 treated BALB/c mice, untreated mice and H37Rv) is recorded as “No growth”.
